Reference: patent publication EP0081122B1, “Carrier tripeptides with antifungal activity” (Helopharm W. Petrik GmbH & Co.KG., priority 1982, dated 1985)

Columns and labels:
[1] = tested on: Carboxypeptidasen
[2] = tested on: einigen Bakterien; assay: Antibacterial activity of free amino acid antagonists; type: cell-based; settings: lost when built into the tripeptides
[3] = tested on: Candida albicans; assay: Growth inhibition / minimal inhibitory concentration in yeast nitrogen base medium; type: cell-based
Procedure: Die weiteren Untersuchungen dieser fünf Tripeptide gegenüber Cadida albicans und Candida pseudotropicalis in »yeast nitrogen base« Medium mit einer Zellzahl von 10^4/ml zu Testbeginn führten zu dem Ergebnis, daß diese Tripeptide keinerlei Wachstumshemmung zeigen. Die Tripeptide werden dabei bis zu einer Konzentration von 10 mg/ml Testmedium beurteilt. Bei den Tripeptiden L-Arg-D-Val-L-Phe und L-Arg-D-Ala-L-Phe werden im Gegenteil sogar Wachstumsförderung von Candida albicans festgestellt.
In der beigefügten Tabelle I sind die kleinsten inhibierenden Konzentrationen der beiden beispielsweisen erfindungsgemäßen Tripeptide 1 und 2 denjenigen der freien Antimetaboliten gegenübergestellt anhand des Beispiels candida albicans. Die Untersuchungen wurden in einem yeast nitrogen base Medium mit einem Glukosegehalt von 2% und einem pH-Wert von 7,2 durchgeführt. Die Zellzahl zu Versuchsbeginn beläuft sich auf 10^4/ml. Die Tests werden in Mikrotiterschalen durchgeführt und es wird 24 Stunden bei 30° C inkubiert.

[4] = dissertation Universität Tübingen 1975; cited from earlier work

Compound	durch Carboxypeptidasen spaltbar [1]	Wirksamkeit gegenüber einigen Bakterien [2]	other results
CC(=O)N[C@@H](CCCNC(=N)N)C(=O)NC(Cc1ccc(F)cc1)C(=O)N[C@@H](Cc1ccccc1)C(=O)O (mixture of isomers) [Verbindung 3, N 1-Acetyl-L-arginyl-DL-(p-fluorphenylalanyl)-L-phenyialanin]	schwerer spaltbar	–	–
N=C(N)NCCC[C@H](N)C(=O)NC(Cc1ccc(F)cc1)C(=O)N[C@@H](Cc1ccccc1)C(N)=O (mixture of isomers) [Verbindung 4, L-Arginyl-DL-(p-fluorphenylalanyl)-L-phenylalaninamid]	schwerer spaltbar	–	–
NC(Cc1ccc(F)cc1)C(=O)O (racemic) [p-F-DL-Phenylalanin]	–	Wirksamkeit zeigen	Wirksamkeit gegen candida albicans [3]: nicht wirksam; MIC ([3]; 24 h, all tested Candida albicans isolates, read-out: inhibierende Konzentration): > 256 µg/mL
NC(Cc1cccs1)C(=O)O (racemic) [β-2-DL-Thienylalanin]	–	Wirksamkeit zeigen	–
L-Arginyl-D-allothreonyl-L-phenylalanin	–	–	antifungische Wirksamkeit [4]: antifungische Wirksamkeit
